We go through one molecule from patent US11207430B2, “Gadolinium expressed lipid nanoparticles for magnetic resonance imaging” (University of Washington, priority 2009, dated 2021).

Series [1] deals with lymph nodes. Kind of series: Primate lymphatic MRI study (DCE MRI after subcutaneous injection). It counts as in vivo, M. Nemestrina. The conditions noted are these: animals injected subcutaneously. As for the experimental part: In vivo imaging of the lymph nodes using Gd-DTPA-lipid nanoparticles for dynamic contrast enhanced (DCE) MRI was performed in a 1.5T MR scanner. The pigtailed macaque (M. Nemestrina) was anesthetized with inhaled isofluorane (1-2%) and closely monitored during the experiments. A pre-contrast image of the primate was recorded to determine proper lymph node location and fine-tune the imaging parameters. The animal was removed from the MR scanner and injected subcutaneously at four sites. […] The total dose of Gd is estimated to be 24.4 μmol/kg for the primate studies.

The conditions of series [2]: clinical use; cited from earlier work.
For series [3], the system named is vasculature. Kind of series: Rat vascular MRI study (DCE MRI after intravenous injection). It is filed as in vivo. The note with it: 0.01 mmol/kg nanoparticles or 0.05 mmol/kg OMNISCAN, 5 min and 14-15 min. As to the method:
In vivo imaging of the rat using Gd-DTPA-lipid nanoparticles for dynamic contrast enhanced (DCE) MRI was performed in a 3.0T MR scanner. The rats (SD) was anesthetized with inhaled isofluorane (1-2%) and closely monitored during the experiments. A pre-contrast image of the rat was recorded to determine proper location, orientation and fine-tune the imaging parameters. The animal was removed from the MR scanner and injected with […] of indicated Gd contrast media through femoral vein. The images were recorded on a Signa […] Scanner using a surface coil 12×12 inch.

“Also recorded” adds a separate entry of the source.

Turning to `CNC(=O)CN(CCN(CCN(CC(=O)[O-])CC(=O)NC)CC(=O)[O-])CC(=O)[O-].[Gd+3]` [OMNISCAN, Gd-DTPA-BMA], in series [1], the “Time within which signal in lymphatic system dissipates” value is recorded as ≤ 20 min. Also, the Clearance time result in series [2] is “cleared within a few minutes”. Further, in series [3], the “Localization of contrast enhancement” value was “diffused throughout and does not localize in the vasculature, well-perfused tissues, or the lymph nodes; also recorded: diffuse contrast localization with no vascular definition”.
